Square brackets hold non-standard residues; d marks the D form. Peptide text beside a SMILES is read from it. Nle = CCCC[C@H](N)C(=O)O
Tests used:
[1] = test system: M-cells; assay: Cytological changes of cell cultures in continuous presence of the inhibitors; assay type: cell-based, human; conditions: continuous presence 72 and 120 h, 2 mg/ml trypsin-chymotrypsin inhibitor, 1 mg/ml aprotinin, leupeptin or E64
Description: (§1) a) Cytological Changes of Cell Cultures in Continuous Presence of the Inhibitors
(§2) The following samples were made up in RPMI-1640 complete medium:
(§3) 2. 2 mg/ml trypsin-chymotrypsin inhibitor
(§4) 6. all five inhibitors at the above mentioned concentrations
(§5) 7. RPMI-1640 medium with no inhibitor addition to serve as a control medium.
(§6) Ten glass Petri dishes (5 cm diameter) were seeded each with 1×10^6 M-cells and another ten dishes were seeded each with 1×10^6 P-cells. Duplicate cell cultures received each type of complete medium containing the inhibitors and control cultures received only complete medium. The cell cultures were incubated at 37° C. in a humidified CO2-incubator for 120 hours. The culture medium was changed with fresh medium containing the same inhibitors at 24 and 72 hours after start of the experiment. Half of the cell cultures were fixed in 50% ethanol 72 hours and the other half 120 hours after initiation of the experiment. All cell cultures were stained according to the Papanicolaou method.

[2] = test system: P-cells; assay: as above; assay type: cell-based, human; conditions: continuous presence 72 and 120 h, 2 mg/ml trypsin-chymotrypsin inhibitor, 1 mg/ml aprotinin, leupeptin or E64
Description: as §1, §2, §3, §4, §5, §6

[3] = test system: human NHIK 3025 cervix carcinoma cells; assay: Cell survival (colony formation) of cervix carcinoma cells; assay type: cell-based; conditions: 24 hours treatment, colonies scored after 12 to 14 days
From the text: Human cells of the established line […], originating from a cervical carcinoma in situ (Nordbye, K. and Oftebro, R., 1969, Exp. Cell Res., 58:458 and Oftebro, R. and Nordbye, K., 1969, Exp. Cell Res., 58:459) were cultivated in medium Eagles minimum essential medium (MEM) supplemented with 10% fetal bovine serum and antibiotics. Cells were routinely grown as monolayers in tissue culture flasks. The cells were kept in continuous exponential growth by frequent reculturing every second or third day. During reculturing, as well as during experiments, the cells were kept in humidified CO2 incubators at 37° C.
In the experiments represented in this example, the proteinaceous CANP inhibitor was additionally purified by gel filtration chromatography.
Cell survival studies were performed by adding inhibitors to exponentially growing, asynchronous cells 2 hours after seeding the cells into plastic Petri dishes at known cell densities. The inhibitor treatment period was 24 hours after which the dishes were rinsed with warm (37° C.) Hanks' balanced salt solution and fresh medium without inhibitor, was added. After 12 to 14 days of incubation (with a medium shift on day 7) colonies of cells were fixed in ethanol and stained with methylene blue. Only colonies containing more than 40 cells were scored as survivors. The percent cell survival is calculated relative to untreated, control dishes.

[4] = test system: Walker rat tumors; assay: Calpain inhibitor I and II on growth of Walker rat tumors in vivo; set-up: species or system Wistar rats; conditions: liposomal, 27 mg/100 g rat daily i.p.
Description: Male Wistar rats were injected with 10×10^6 Walker tumor cells per rat at the inguinal region. Treatment was started when measurable tumors appeared. Each treatment group consisted of 5 rats. […] Rats were treated with 2 ml liposomal solution of inhibitors at a concentration of 13.5 mg/ml, equivalent to 27 mg/100 g rat, daily by intraperitoneal injection. Rats in the control group received daily injections of saline-filled liposomes. Tumor volume was determined by measuring two diameters with calipers. The data is presented in FIG. 3 in which each data point represents the mean±S.E. tumor volume measurements for 5 rats.

Row | Compound | effect on growth or cytology compared to control cell cultures [1] | effect on growth or cytology compared to control cell cultures [2] | cytotoxic effect (cell survival, FIG. 1) [3] | tumor regression ([4]; 5 doses) | anticancer effect (tumor volume, FIG. 3) [4]
1 | CC(C)C[C@H](NC(=O)[C@H]1O[C@@H]1C(=O)O)C(=O)NCCCCN=C(N)N (relative stereo) [E64, L-trans-3-carboxy-oxiran-2-carbonyl-L-leucylagmatine] | did not affect the growth or cytology | did not affect the growth or cytology | little cytotoxic effect |  | 
2 | CCCC[C@@H](C=O)NC(=O)[C@H](CC(C)C)NC(=O)[C@H](CC(C)C)NC(C)=O [calpain inhibitor I, N-Acetyl-Leu-Leu-Norleucinal] (Ac-Leu-Leu-[Nle]-aldehyde) |  |  |  | approximately 92% | 
3 | CSCC[C@@H](C=O)NC(=O)[C@H](CC(C)C)NC(=O)[C@H](CC(C)C)NC(C)=O [calpain inhibitor II, N-Acetyl-Leu-Leu-Methioninal] (Ac-Leu-Leu-Met-aldehyde) |  |  | slightly greater cytotoxicity than aprotinin |  | anticancer effect from the fourth dose
4 | CC(=O)N[C@@H](CC(C)C)C(=O)N[C@@H](CC(C)C)C(=O)N[C@H](C=O)CCCNC(=N)N [leupeptin, N-acetyl-L-leucyl-L-leucyl-L-arginal] | did not affect the growth or cytology | did not affect the growth or cytology | little cytotoxic effect |  | 
5 | aprotinin | did not affect the growth or cytology | did not affect the growth or cytology |  |  | 

Reference: patent publication US6511959B1, “Use of calcium-activated neutral protease (CANP) inhibitors in pharmaceutical preparations” (Norsk Hydro AS, priority 1991, dated 2003)
